Assay [1] concerns the target GSK3β (Homo sapiens, UniProt P49841). As to the kind of experiment: GSK3beta assay (SPA, biotinylated phosphorylated CREB peptide, ATP-P33). Type of assay: biochemical. The note with it: −log IC50 (M); given as ranges (>8; 7-8; <7); read-out: pIC50 (GSK3beta) (converted). Here is the method: (§1) GSK3beta assays were performed at room temperature in a 100 μl reaction volume of 25 mM Tris (ph 7.4) containing 10 mM MgCl2.6H2O 1 mM DTT, 0.1 mg/ml BSA, 5% glyceol and containing 5.7 ng/μl GSK3β, 5 μM biotinylated phosphorylated CREB peptide, 1 μM APT, 0.85 μCi/ml ATP-P^33 and a suitable amount of a test compound of formula (I). After one hour, the reaction was terminated by adding 70 μl of Stop mix (0.1 mM APT, 5 mg/ml streptavidin coated PVT SPA bead pH 11.0). The beads to which the phosphorylated CREB peptide is attached were allowed to settle overnight and the radioactivity of the beads was counted in a microtiterplate scintillation counter and compared with the results obtained in a control experiment (without the presence of a test compound) in order to determine the percentage of GSK3β inhibition. The IC50 value, i.e. the concentration (M) of the test compound at which 50% of GSK3β is inhibited, was calculated from the dose response curve obtained by performing the above-described GSKK3β assay in the presence of different amounts of the test compound.

Assay [2] has as its target GSK3alpha (Homo sapiens, UniProt P49840). Kind of assay: GSK3alpha assay (same as the GSK3beta assay, GSK3alpha 0.25 ng/μl). The note with it: −log IC50 (M); given as ranges (>8; 7-8; <7); read-out: pIC50 (GSK3alpha) (converted). Type of assay: biochemical. Here is the method: as §1
The GSK3alpha assay was performed in the same way as described above for the GSK3beta assay except for the concentration of GSK3alpha which is 0.25 ng/μl.

The structures appear in SMILES notation.

GSK3alpha, sequence (P49840 whole entry, species assumed): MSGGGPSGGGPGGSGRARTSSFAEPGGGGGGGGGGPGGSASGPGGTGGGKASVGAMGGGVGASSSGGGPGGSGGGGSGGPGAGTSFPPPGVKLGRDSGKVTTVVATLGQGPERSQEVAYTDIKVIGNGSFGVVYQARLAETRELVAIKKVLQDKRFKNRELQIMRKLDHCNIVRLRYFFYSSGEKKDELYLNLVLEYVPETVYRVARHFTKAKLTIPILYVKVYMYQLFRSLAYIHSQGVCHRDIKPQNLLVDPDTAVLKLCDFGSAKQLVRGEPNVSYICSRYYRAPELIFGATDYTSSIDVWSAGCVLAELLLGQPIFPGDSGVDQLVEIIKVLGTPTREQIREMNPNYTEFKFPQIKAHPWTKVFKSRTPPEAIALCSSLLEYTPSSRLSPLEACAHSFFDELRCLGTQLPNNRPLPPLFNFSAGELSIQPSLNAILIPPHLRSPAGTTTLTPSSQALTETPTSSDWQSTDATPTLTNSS
GSK3β, sequence (P49841 whole entry, species assumed): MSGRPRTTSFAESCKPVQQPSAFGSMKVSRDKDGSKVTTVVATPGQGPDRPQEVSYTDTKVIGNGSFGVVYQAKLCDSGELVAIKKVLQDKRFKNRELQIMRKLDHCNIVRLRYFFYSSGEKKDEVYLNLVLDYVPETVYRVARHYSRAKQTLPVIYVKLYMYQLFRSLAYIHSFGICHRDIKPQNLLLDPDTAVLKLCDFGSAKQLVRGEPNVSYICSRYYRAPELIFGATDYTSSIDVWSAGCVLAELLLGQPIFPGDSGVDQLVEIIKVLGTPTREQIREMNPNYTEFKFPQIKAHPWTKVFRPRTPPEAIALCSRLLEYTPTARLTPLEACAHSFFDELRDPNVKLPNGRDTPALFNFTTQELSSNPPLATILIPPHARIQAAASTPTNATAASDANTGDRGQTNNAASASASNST

Consider `COCc1cccc(-n2nnc3cnc(Nc4cccc(C(=O)NCCNC(C)=O)c4)nc32)c1` [Compound 149], for which the IC50 is 1e-08 to 1e-07 M in assay [1] and below 1e-08 M in assay [2].

Regarding `OCCc1cccc(Nc2ncc3nnn(-c4cccc(F)c4)c3n2)c1` [Compound 150], the IC50 in assay [1] and in assay [2] was below 1e-08 M in each case.

For the compound `COCc1cccc(-n2nnc3cnc(Nc4cccc(CCO)c4)nc32)c1` [Compound 151], the IC50 in assay [1] and in assay [2] was below 1e-08 M each time.

For the compound `NC(=O)Cc1cccc(Nc2ncc3nnn(-c4cccc(F)c4)c3n2)c1` [Compound 153], the IC50 in assay [1] and in assay [2] was below 1e-08 M throughout.

Regarding `COCc1cccc(-n2nnc3cnc(Nc4cccc(S(=O)(=O)NCCNC(C)=O)c4)nc32)c1` [Compound 154], the IC50 in assay [1] and in assay [2] was 1e-08 to 1e-07 M throughout.

For the compound `COCC(=O)NCc1cccc(-n2nnc3cnc(Nc4ccc(C(=O)O)cc4)nc32)c1` [Compound 155], the IC50 in assay [1] was 1e-08 to 1e-07 M; in assay [2] it was below 1e-08 M.

Turning to `COCC(=O)NCc1cccc(-n2nnc3cnc(Nc4cccc(NC(C)=O)c4)nc32)c1` [Compound 156], the IC50 in assay [1] and in assay [2] was below 1e-08 M each time.

For `COCC(=O)NCc1cccc(-n2nnc3cnc(Nc4ccc(NC(C)=O)c(C(=O)OC)c4)nc32)c1` [Compound 157], the IC50 in assay [1] and in assay [2] was below 1e-08 M each time.

As to `COCC(=O)NCc1cccc(-n2nnc3cnc(Nc4cccc(NS(C)(=O)=O)c4)nc32)c1` [Compound 158], the IC50 in assay [1] and in assay [2] was below 1e-08 M each time.

On to `NS(=O)(=O)c1ccc(Nc2ncc3nnn(-c4cccc(CC(=O)O)c4)c3n2)cc1` [Compound 160], for which the IC50 in assay [1] and in assay [2] was 1e-08 to 1e-07 M each time.

For the compound `CC(=O)NCc1cccc(Nc2ncc3nnn(-c4cccc(CCO)c4)c3n2)c1` [Compound 167], the IC50 in assay [1] and in assay [2] was below 1e-08 M each time.

Regarding `COCc1cccc(Nc2ncc3nnn(-c4cccc(CCO)c4)c3n2)c1` [Compound 168], the IC50 in assay [1] and in assay [2] was below 1e-08 M in each case.

As to `NS(=O)(=O)c1ccc(Nc2ncc3nnn(-c4cccc(CCO)c4)c3n2)cc1` [Compound 169], the IC50 in assay [1] and in assay [2] was below 1e-08 M each time.

As for `COc1cc(Nc2ncc3nnn(-c4cccc(CCO)c4)c3n2)ccc1F` [Compound 171], the IC50 in assay [1] and in assay [2] was below 1e-08 M each time.

Turning to `OCCc1cccc(Nc2ncc3nnn(-c4cccc(CCO)c4)c3n2)c1` [Compound 172], the IC50 in assay [1] and in assay [2] was below 1e-08 M throughout.

Turning to `COc1ccc(Nc2ncc3nnn(-c4cccc(CCO)c4)c3n2)cn1` [Compound 173], the IC50 in assay [1] and in assay [2] was below 1e-08 M in each case.

For the compound `COCC(=O)NCc1cccc(-n2nnc3cnc(Nc4ccc(S(N)(=O)=O)cc4)nc32)c1` [Compound 174], the IC50 in assay [1] and in assay [2] was below 1e-08 M each time.

As for `COCC(=O)NCc1cccc(-n2nnc3cnc(Nc4cccc(C#N)c4)nc32)c1` [Compound 175], the IC50 in assay [1] and in assay [2] was below 1e-08 M each time.

Consider `NC(=O)CNC(=O)c1cccc(Nc2ncc3nnn(-c4cccc(CC(=O)O)c4)c3n2)c1` [Compound 176], for which the IC50 in assay [1] and in assay [2] was 1e-08 to 1e-07 M throughout.

In the case of `CS(=O)(=O)Nc1cccc(Nc2ncc3nnn(-c4cccc(CC(=O)O)c4)c3n2)c1` [Compound 180], the IC50 in assay [1] and in assay [2] was 1e-08 to 1e-07 M throughout.

On to `CC(C)CC(=O)NCc1cccc(-n2nnc3cnc(Nc4cccc(C#N)c4)nc32)c1` [Compound 185], for which the IC50 in assay [1] and in assay [2] was below 1e-08 M throughout.

As to `CC(C)CC(=O)NCc1cccc(-n2nnc3cnc(Nc4cccc(C(=O)NCCO)c4)nc32)c1` [Compound 186], the results for the IC50 in assay [1] and in assay [2] were 1e-08 to 1e-07 M and below 1e-08 M, respectively.

With `COCc1cccc(Nc2ncc3nnn(-c4cccc(CNC(=O)CC(C)C)c4)c3n2)c1` [Compound 188], the IC50 in assay [1] and in assay [2] was below 1e-08 M each time.

`CC(C)CC(=O)NCc1cccc(-n2nnc3cnc(Nc4cccc(NS(C)(=O)=O)c4)nc32)c1` [Compound 189]: the IC50 in assay [1] and in assay [2] was below 1e-08 M each time.

Consider `CC(C)CC(=O)NCc1cccc(-n2nnc3cnc(Nc4ccc(C#N)cc4)nc32)c1` [Compound 190], for which the values for the IC50 in assay [1] and in assay [2] were 1e-08 M and below 1e-08 M, respectively.

On to `CC(C)CC(=O)NCc1cccc(-n2nnc3cnc(Nc4ccc(C(N)=O)cc4)nc32)c1` [Compound 191], for which the IC50 in assay [1] and in assay [2] was below 1e-08 M in each case.

On to `CC(C)CC(=O)NCc1cccc(-n2nnc3cnc(Nc4ccc(C(=O)NCC(=O)O)cc4)nc32)c1` [Compound 192], for which the IC50 in assay [1] and in assay [2] was below 1e-08 M in each case.

With `CC(C)CC(=O)NCc1cccc(-n2nnc3cnc(Nc4ccc(C(=O)O)cc4)nc32)c1` [Compound 193], the IC50 in assay [1] and in assay [2] was 1e-08 to 1e-07 M throughout.

In the case of `CC(C)CC(=O)NCc1cccc(-n2nnc3cnc(Nc4ccc(CC(=O)O)cc4)nc32)c1` [Compound 194], the IC50 in assay [1] is 1e-08 to 1e-07 M; in assay [2], below 1e-08 M.

For the compound `CC(C)CC(=O)NCc1cccc(-n2nnc3cnc(Nc4ccc(CCO)cc4)nc32)c1` [Compound 195], the IC50 in assay [1] was 1e-08 to 1e-07 M; in assay [2], below 1e-08 M.

For `CC(C)CC(=O)NCc1cccc(-n2nnc3cnc(Nc4ccc(S(N)(=O)=O)cc4)nc32)c1` [Compound 197], the IC50 in assay [1] and in assay [2] was below 1e-08 M throughout.

Turning to `O=C(NCCO)c1cccc(Nc2ncc3nnn(-c4cccc(CNC(=O)C5CC5)c4)c3n2)c1` [Compound 200], the IC50 in assay [1] is 1e-08 to 1e-07 M; in assay [2], below 1e-08 M.

Consider `COCc1cccc(Nc2ncc3nnn(-c4cccc(CNC(=O)C5CC5)c4)c3n2)c1` [Compound 201], for which the IC50 in assay [1] and in assay [2] was below 1e-08 M in each case.

Consider `CS(=O)(=O)Nc1cccc(Nc2ncc3nnn(-c4cccc(CNC(=O)C5CC5)c4)c3n2)c1` [Compound 202], for which the IC50 in assay [1] and in assay [2] was below 1e-08 M in each case.

Turning to `N#Cc1ccc(Nc2ncc3nnn(-c4cccc(CNC(=O)C5CC5)c4)c3n2)cc1` [Compound 203], the IC50 in assay [1] is 1e-08 to 1e-07 M; in assay [2], below 1e-08 M.

Regarding `O=C(O)CNC(=O)c1ccc(Nc2ncc3nnn(-c4cccc(CNC(=O)C5CC5)c4)c3n2)cc1` [Compound 205], the IC50 in assay [1] and in assay [2] was below 1e-08 M each time.

Consider `O=C(O)c1ccc(Nc2ncc3nnn(-c4cccc(CNC(=O)C5CC5)c4)c3n2)cc1` [Compound 206], for which the IC50 in assay [1] and in assay [2] was below 1e-08 M in each case.

For `O=C(O)Cc1ccc(Nc2ncc3nnn(-c4cccc(CNC(=O)C5CC5)c4)c3n2)cc1` [Compound 207], the IC50 in assay [1] and in assay [2] was below 1e-08 M throughout.

For the compound `O=C(NCc1cccc(-n2nnc3cnc(Nc4ccc(CCO)cc4)nc32)c1)C1CC1` [Compound 208], the IC50 in assay [1] and in assay [2] was below 1e-08 M each time.

Take `COc1ccc(Nc2ncc3nnn(-c4cccc(CNC(=O)C5CC5)c4)c3n2)cn1` [Compound 209]: the IC50 in assay [1] and in assay [2] was 1e-08 to 1e-07 M each time.

Turning to `NS(=O)(=O)c1ccc(Nc2ncc3nnn(-c4cccc(CNC(=O)C5CC5)c4)c3n2)cc1` [Compound 210], the IC50 in assay [1] and in assay [2] was below 1e-08 M throughout.

`O=C(O)c1ccc(Nc2ncc3nnn(-c4cccc(CNC(=O)C5CC5)c4)c3n2)cc1Cl` [Compound 212]: the IC50 in assay [1] and in assay [2] was below 1e-08 M each time.

`CCOC(=O)NCc1cccc(-n2nnc3cnc(Nc4cccc(C#N)c4)nc32)c1` [Compound 214]: the IC50 in assay [1] and in assay [2] was below 1e-08 M throughout.

For `CCOC(=O)NCc1cccc(-n2nnc3cnc(Nc4cccc(COC)c4)nc32)c1` [Compound 216], the IC50 in assay [1] and in assay [2] was below 1e-08 M in each case.

Take `CCOC(=O)NCc1cccc(-n2nnc3cnc(Nc4cccc(NS(C)(=O)=O)c4)nc32)c1` [Compound 217]: the IC50 in assay [1] and in assay [2] was below 1e-08 M in each case.

Take `CCOC(=O)NCc1cccc(-n2nnc3cnc(Nc4ccc(C(N)=O)cc4)nc32)c1` [Compound 218]: the IC50 in assay [1] and in assay [2] was below 1e-08 M in each case.

As to `CCOC(=O)NCc1cccc(-n2nnc3cnc(Nc4ccc(CC(=O)O)cc4)nc32)c1` [Compound 219], the IC50 in assay [1] and in assay [2] was below 1e-08 M throughout.

As to `CCOC(=O)NCc1cccc(-n2nnc3cnc(Nc4ccc(CCO)cc4)nc32)c1` [Compound 220], the IC50 in assay [1] and in assay [2] was below 1e-08 M in each case.

With `CCOC(=O)NCc1cccc(-n2nnc3cnc(Nc4ccc(OC)nc4)nc32)c1` [Compound 221], the IC50 in assay [1] and in assay [2] was below 1e-08 M throughout.

Regarding `CCOC(=O)NCc1cccc(-n2nnc3cnc(Nc4cccc([S+](C)[O-])c4)nc32)c1` (stereo not drawn) [Compound 223], the IC50 in assay [1] and in assay [2] was below 1e-08 M each time.

With `NS(=O)(=O)c1ccc(Nc2ncc3nnn(-c4cccc(C(=O)NCCO)c4)c3n2)cc1` [Compound 227], the IC50 is 1e-08 to 1e-07 M in assay [1] and below 1e-08 M in assay [2].

(Values after US7560458B2, “Triazolopyrimidine derivatives as glycogen synthase kinase 3 inhibitors” (Janssen Pharmaceutica, N.V., priority 2003, dated 2009).)
